Experimental data reported in publication PMC7612365 (Cancer Discovery, 2021).
Where two headings read alike, the source gives them in different places.

Legend:
[1] = substrates of efflux transporters ABCB1 (P-gp) and/or ABCG2 (BCRP) ref 27, 28; cited from earlier work
[2] = cited from earlier work
ABCB1 (P-gp) [3] = target: T1, ABCB1 (P-gp) (Homo sapiens, UniProt P08183); experiment: Caco-2 permeability assay with P-gp substrate indinavir
Protocol: (§1) Apparent permeability (Papp) was determined in the Caco-2 human colon carcinoma cell line. Cells were maintained (DMEM with 10% FBS, penicillin, and streptomycin) in a humidified atmosphere with 5%CO2/95% air for 10 days. Cells were plated out onto a cell culture assembly plate (Millipore), and monolayer confluency was checked using a transepithelial electrical resistance (TEER) electrode prior to the assay. Media were washed off and replaced in the appropriate apical and basal wells with Hank's Balanced Salt Solution buffer (pH 7.4). […] LY335979 (P-gp inhibitor) and Ko134 (BCRP inhibitor) were used as positive controls. The Caco-2 plate was incubated for 2 hours at 37°C in a humidified atmosphere with 5% CO2, and Lucifer yellow was used to confirm membrane integrity after the assay. Samples from the apical and basolateral chambers were analyzed using reverse chromatography tandem mass spectrometry on a Waters TQ-S.

[4] = up to 70 mg weekly ref 54; cited from earlier work
ABCG2 (BCRP) = target: T2, ABCG2 (BCRP) (Homo sapiens, UniProt Q9UNQ0); experiment: Caco-2 permeability assay with BCRP substrate E3S; format: in vitro ADME; settings: for interaction with BCRP / B–A apparent permeability of control substrate: Caco-2
T2 construct: Apparent permeability (Papp) was determined in the Caco-2 human colon carcinoma cell line; endogenous in cells; host or cells: Caco-2
T2 sequence (Q9UNQ0 1-655): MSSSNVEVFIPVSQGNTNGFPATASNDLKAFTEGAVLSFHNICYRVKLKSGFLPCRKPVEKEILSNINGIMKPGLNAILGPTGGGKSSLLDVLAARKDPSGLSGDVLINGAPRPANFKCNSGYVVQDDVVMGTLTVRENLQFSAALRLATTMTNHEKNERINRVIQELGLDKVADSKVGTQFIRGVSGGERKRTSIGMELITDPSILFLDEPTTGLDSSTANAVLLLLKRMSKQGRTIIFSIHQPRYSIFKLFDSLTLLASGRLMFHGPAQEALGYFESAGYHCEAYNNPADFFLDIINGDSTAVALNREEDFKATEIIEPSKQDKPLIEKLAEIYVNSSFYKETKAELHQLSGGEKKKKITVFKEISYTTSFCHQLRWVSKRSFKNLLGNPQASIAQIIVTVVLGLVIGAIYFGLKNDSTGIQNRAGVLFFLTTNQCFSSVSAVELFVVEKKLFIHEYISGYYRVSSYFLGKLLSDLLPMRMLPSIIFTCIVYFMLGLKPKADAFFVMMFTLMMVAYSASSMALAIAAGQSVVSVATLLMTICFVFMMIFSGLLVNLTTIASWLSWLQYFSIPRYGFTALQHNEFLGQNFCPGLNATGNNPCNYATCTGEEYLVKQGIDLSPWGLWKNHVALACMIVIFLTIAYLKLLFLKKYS
Protocol: as §1

[5] = Vandetanib brain concentration in non-tumor-bearing mice (LC-MS/MS); format: in vivo, mouse; settings: with everolimus compared with vandetanib alone, P = 0.0854
Protocol: Plasma and brain tissue samples were taken in triplicate at 1 hour after the last dose. Analysis was carried out by LC-MS/MS using a Xevo TQS coupled with an Acquity UPLC H-class system (Waters). Chromatography was carried out using a Phenomenex C18 X-B column (2.6 μm, 50 × 2.1 mm). Data acquisition was performed using Targetlynx, version 4.1, and modeling was carried out using Phoenix WinNonlin version 6.3.

[6] = Vandetanib concentration in brain and tumor of nude mice; format: in vivo; settings: female, athymic nude, mouse, intraperitoneal, combined with everolimus
Protocol: (§2) Both patient-derived H3F3A^K27M, ACVR1^R206H HSJD-DIPG-007 cells and those derived from a Nestin-Tv-a; Trp53^fl/fl; Hist1h3b^K27M, Acvr1^R206H ([14]) GEMM were used for orthotopic implantation. A single-cell suspension of each culture was made the day before implantation and cultured overnight. On the implantation day, small tumorspheres in exponential growth were harvested by mild centrifugation. Three-week-old female athymic mice were anesthetized with 100 mg/kg ketamine and 10 mg/kg xylazine and immobilized in a stereotaxic apparatus (Stoelting) at coordinates x+0.5 and y−5.4 from the bregma suture. HSJD-DIPG-007 tumorspheres (5 × 10^5 cells), suspended in 5 μL Matrigel (BD Biosciences), were injected at a 3.1-mm depth (targeting the fourth ventricle) with a dull 22-gauge needle attached to a 50-μL syringe (Hamilton), using a stereotaxic arm. The animals (n = 72) were divided in four groups, with treatment starting 4 weeks (day 25) after tumor inoculation. […] Mice were monitored by daily weighing and sacrificed by decapitation upon deterioration of condition or 20% weight loss from the maximum weight achieved, with tissue taken for further analysis. Mouse brains collected at the end of the efficacy study were processed for IHC. […]

ABCB1 (P-gp) [7] = target: T1, ABCB1 (P-gp); settings: Caco-2
Protocol: as §1

[8] = test system: ACVR1-mutant and wild-type patient-derived DIPG cells; experiment: Single-agent cell viability in patient-derived DIPG cells; settings: in vitro; P = 0.0272
Protocol: Cells were plated at a density of 2,000 to 4,000 cells/well on laminin-coated 96-well plates in a minimum of triplicates. After 3 days of incubation, compounds were added to each well and incubated at 37°C in 5% CO2, 95% humidity for 8 days (192 hours). […] Cell viability was assessed by the CellTiter-Glo luminescent cell viability assay (Promega).

DIPG = settings: cited from earlier work
[9] = with everolimus to inhibit P-gp and BCRP ref 41; cited from earlier work
[10] = Vandetanib concentration in brain and tumor of NSG mice; format: in vivo; settings: mouse, intraperitoneal, combined with everolimus
Protocol: as §2

T1 sequence (P08183 whole entry): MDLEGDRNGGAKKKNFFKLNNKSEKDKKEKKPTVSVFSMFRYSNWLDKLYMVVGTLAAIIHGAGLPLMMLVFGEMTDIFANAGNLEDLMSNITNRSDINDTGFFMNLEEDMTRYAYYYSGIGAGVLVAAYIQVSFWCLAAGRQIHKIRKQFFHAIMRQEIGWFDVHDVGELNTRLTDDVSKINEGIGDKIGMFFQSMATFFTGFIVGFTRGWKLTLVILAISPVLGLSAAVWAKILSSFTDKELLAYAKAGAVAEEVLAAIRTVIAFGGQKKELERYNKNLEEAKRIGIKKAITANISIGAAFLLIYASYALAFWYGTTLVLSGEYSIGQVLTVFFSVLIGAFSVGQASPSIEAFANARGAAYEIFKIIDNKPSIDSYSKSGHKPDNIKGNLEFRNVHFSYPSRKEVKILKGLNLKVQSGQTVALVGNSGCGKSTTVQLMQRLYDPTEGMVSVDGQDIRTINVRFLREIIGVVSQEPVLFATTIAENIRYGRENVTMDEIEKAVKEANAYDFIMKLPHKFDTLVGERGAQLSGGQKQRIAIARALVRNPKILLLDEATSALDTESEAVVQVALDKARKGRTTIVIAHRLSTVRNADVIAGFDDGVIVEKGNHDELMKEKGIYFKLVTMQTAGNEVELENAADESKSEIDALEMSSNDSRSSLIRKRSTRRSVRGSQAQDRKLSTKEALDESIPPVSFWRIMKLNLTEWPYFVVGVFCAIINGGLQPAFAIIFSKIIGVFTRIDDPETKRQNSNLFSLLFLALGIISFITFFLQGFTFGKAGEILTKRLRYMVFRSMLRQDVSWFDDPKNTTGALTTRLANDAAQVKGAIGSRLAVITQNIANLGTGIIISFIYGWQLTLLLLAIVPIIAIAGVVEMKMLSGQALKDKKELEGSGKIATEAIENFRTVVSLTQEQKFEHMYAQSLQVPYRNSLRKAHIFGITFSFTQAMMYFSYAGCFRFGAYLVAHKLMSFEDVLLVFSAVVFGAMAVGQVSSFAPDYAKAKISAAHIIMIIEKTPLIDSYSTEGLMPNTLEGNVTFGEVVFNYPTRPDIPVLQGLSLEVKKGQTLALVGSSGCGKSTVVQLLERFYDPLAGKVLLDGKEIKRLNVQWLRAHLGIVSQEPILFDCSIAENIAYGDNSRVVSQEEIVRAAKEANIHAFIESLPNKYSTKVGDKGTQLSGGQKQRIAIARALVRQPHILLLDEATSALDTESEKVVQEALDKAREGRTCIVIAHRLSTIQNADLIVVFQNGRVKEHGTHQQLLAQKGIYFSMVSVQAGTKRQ

C[C@@H](Oc1cc(-c2cnn(C3CCNCC3)c2)cnc1N)c1c(Cl)ccc(F)c1Cl [crizotinib]
brain exposure [1]: insufficient brain exposures

CO[C@H]1C[C@@H]2CC[C@@H](C)[C@@](O)(O2)C(=O)C(=O)N2CCCC[C@H]2C(=O)O[C@H]([C@H](C)C[C@@H]2CC[C@@H](OCCO)[C@H](OC)C2)CC(=O)[C@H](C)/C=C(\C)[C@@H](O)[C@@H](OC)C(=O)[C@H](C)C[C@H](C)/C=C/C=C/C=C/1C [everolimus]
MTD and recommended phase II dose of everolimus ([2]; in combination with vandetanib ref 42): 10 mg once daily | interaction with P-gp / B–A apparent permeability of control substrate (ABCB1 (P-gp) [3]): significantly decreased | mean peak levels compared with standard regimens [4]: tenfold higher | tolerability of higher doses [4]: well tolerated | interaction with BCRP / B–A apparent permeability of control substrate (ABCG2 (BCRP)): significantly decreased

COc1cc2c(Nc3ccc(Br)cc3F)ncnc2cc1OCC1CCN(C)CC1 [vandetanib]
increase of median brain concentration of vandetanib [5]: 56% | concentration at 2 h ([6]; normal brain): > 15 µM | concentration at 2 h ([6]; tumour (PDX)): > 15 µM | MTD and recommended phase II dose of vandetanib ([2]; in combination with everolimus ref 42): 300 mg once daily | interaction with P-gp / B–A apparent permeability of control substrate (ABCB1 (P-gp) [7]): weak interactions | enhanced difference in cell viability, ACVR1-mutant compared with wild-type DIPG cells [8]: approximately twofold | DLT (diarrhea grade 3) (DIPG; in vivo): one | RP2D (DIPG; in vivo): 145 mg/m^2/d | patients with grade 4 hypertension and posterior reversible encephalopathy syndrome (DIPG; in vivo): two | 2-year OS (DIPG; single agent ref 32): 21.4% | MTD (DIPG; single agent ref 32): not reached | objective responses (DIPG; single agent ref 32): no objective responses | interaction with BCRP / B–A apparent permeability of control substrate (ABCG2 (BCRP)): weak interactions | effect of adding vandetanib to everolimus on BCRP substrate permeability (ABCG2 (BCRP); Caco-2, combination): no effect | vandetanib brain concentrations in mice [9]: significantly increased | brain exposure [1]: insufficient brain exposures | concentration at 2 h ([10]; normal brain): 10 µM | concentration at 2 h ([10]; tumour (GEMM allograft)): < 5 µM
